This note sets out measurements from ChEMBL document CHEMBL1828504, “Synthesis and SAR optimization of diketo acid pharmacophore for HCV NS5B polymerase inhibition” (Eur J Med Chem, 2011).

This experiment in a line: Inhibition of recombinant HCV NS5B Cdelta21 polymerase assessed as [alpha-32P]UMP incorporation into RNA after 1 hr by liquid scintillation counting. Details: species or system Hepacivirus hominis.
Consider `O=C(O)/C(O)=C/C(=O)c1ccc[nH]1`, for which the IC50 (usually the concentration at which inhibition is half-maximal) was 21.7 µM. To `O=C(O)/C(O)=C/C(=O)c1ccccc1[N+](=O)[O-]` belongs 11.3 µM; to `Cc1csc(C(=O)/C=C(\O)C(=O)O)c1`, 32.7 µM; to `Cc1ccccc1C(=O)/C=C(\O)C(=O)O`, 6.9 µM. To `O=C(O)/C(O)=C/C(=O)c1ccccc1F` belongs 14.9 µM. To `CCOC(=O)/C(O)=C/C(=O)c1n[nH]c2ccccc12` belongs 38.4 µM. As for `O=C(O)/C(O)=C/C(=O)c1ccco1`, the IC50 is 21.8 µM. To `N#Cc1cccc(C(=O)/C=C(\O)C(=O)O)c1` belongs 39.7 µM. As to `Cc1ccc(C(=O)/C=C(\O)C(=O)O)s1`, the IC50 is 55.5 µM. In the case of `O=C(O)/C(O)=C/C(=O)c1ccc(Cl)cc1Cl`, the IC50 came to 49.7 µM. To `O=C(O)/C(O)=C/C(=O)c1ccc(Cl)s1` belongs 25.5 µM. To `O=C(O)/C(O)=C/C(=O)c1cccc(-c2nnn[nH]2)c1` belongs 5.2 µM; to `O=C(O)/C(O)=C/C(=O)c1cc2cc(Br)ccc2o1`, 8.2 µM. To `O=C(O)/C(O)=C/C(=O)c1ccc(Br)s1` belongs 31.4 µM; to `Cc1ccsc1C(=O)/C=C(\O)C(=O)O`, 7.5 µM. For `O=C(O)/C(O)=C/C(=O)c1cccs1`, the IC50 turned out to be 17.3 µM. For the compound `O=C(O)/C(O)=C/C(=O)c1cc2ccccc2s1`, the IC50 was 37.7 µM.

Take `CCOC(=O)/C(O)=C/C(=O)c1ccccc1F`: the IC50 worked out at 12.4 µM. Regarding `O=C(O)/C(O)=C/C(=O)c1ccc(-c2ccccc2)cc1`, the IC50 worked out at 20.9 µM. To `O=C(O)/C(O)=C/C(=O)c1ccc(I)s1` belongs 63.9 µM.

On to `O=C(O)/C(O)=C/C(=O)c1ccc(F)cc1F`, for which the IC50 turned out to be 2.4 µM. To `O=C(O)/C(O)=C/C(=O)c1nccs1` belongs 30.4 µM; to `O=C(O)/C(O)=C/C(=O)c1c(F)cccc1F`, 17 µM. To `O=C(O)/C(O)=C/C(=O)c1cc2ccccc2o1` belongs 29.6 µM.

Turning to `O=C(O)/C(O)=C/C(=O)c1n[nH]c2ccccc12`, the IC50 came to 24.7 µM. For `O=C(O)/C(O)=C/C(=O)c1cccc(F)c1`, the IC50 was determined as 49.9 µM.
